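Compound exposure: 48 hours, 5 concentrations, 96-well plates. Here, GI50 denotes the concentration required for 50% inhibition of growth.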 Calls of active or inactive are those of the source. No stated cut-off is given here; in the data, active = GI50 up to about 1.1 µM and inactive = higher. Where only a bound is given, the exact number is not on record here.

What all share (assay): growth of human tumour cells (NCI), 48 h
The subject of assay [1] is SR.
The test system of assay [2] is SK-OV-3.
Assay [3] has as its system SK-MEL-28.
Assay [4] relates to CCRF-CEM.
The test system of assay [5] is MOLT-4.
Assay [6] relates to SF-539.
The subject of assay [7] is HCT-116.
The test system of assay [8] is SNB-75.
Assay [9] deals with Hs-578T.
In assay [10] the test system is NCI-H522.
In assay [11] the test system is HT-29.
For assay [12], the system named is HCC 2998.
The test system of assay [13] is TK-10.
The subject of assay [14] is BT-549.
The test system of assay [15] is OVCAR-5.
The subject of assay [16] is OVCAR-8.
Assay [17] concerns CAKI-1.
Assay [18] has as its system OVCAR-3.
The test system of assay [19] is SNB-19.

Take `CC(C)[Si](OC/C(=C/COC(C)(C)C)[C@H]1CC=C(C(=O)c2ccccc2N2CN(C)C(=O)N(C)C2)C1)(C(C)C)C(C)C`: the GI50 in assay [1] was 2.14 µM (inactive); in assay [2], 15.6 µM (inactive); in [3] it was 6.22 µM (inactive); in [4], 3.1 µM (inactive); in assay [5], 0.366 µM (active); in [6], 6.78 µM (inactive). Besides, the GI50 in [7] was 2.3 µM (inactive); in assay [8], 14.1 µM (inactive); in assay [9], 2.6 µM (inactive); in assay [10], 7.41 µM (inactive); in assay [11], 5.75 µM (inactive); in assay [12] it was 12.4 µM (inactive). Besides, the GI50 in assay [13] is 10.1 µM (inactive); in assay [14] it was 13.4 µM (inactive); in assay [15] it was 14.2 µM (inactive); in assay [16], 5.55 µM (inactive); in [17], 4.29 µM (inactive); in [18] it was 9.93 µM (inactive). For the same compound, the GI50 in assay [19] is 12.1 µM (inactive).
Consider `CCOc1ccc(/N=C/C=C(\Cl)c2ccc3ccccc3c2)cc1`, for which the GI50 in assay [1] is 2.52 µM (inactive); in assay [2], 19.7 µM (inactive); in assay [3] it was 11.8 µM (inactive); in [4], 3.56 µM (inactive); in assay [5], 2.55 µM (inactive); in assay [6], 21.2 µM (inactive). Moreover, the GI50 in assay [7] was 9.14 µM (inactive); in assay [8] it was 14.3 µM (inactive); in [9] it was 29.8 µM (inactive); in assay [10], 19.5 µM (inactive); in assay [11], 11.5 µM (inactive); in assay [12], 0.022 µM (active). Also, the GI50 in assay [13] is 17.5 µM (inactive); in assay [14] it was 20.2 µM (inactive); in assay [15], 17.8 µM (inactive); in [16], 16.2 µM (inactive); in assay [17], 18.8 µM (inactive); in assay [18], 15.2 µM (inactive). The GI50 in assay [19] is 16.4 µM (inactive).
For the compound `Clc1ccc(-c2cc(-c3cc4cc(Br)ccc4nc3Cl)on2)cc1`, the GI50 was 10.4 µM (inactive) in assay [1]; 18.9 µM (inactive) in assay [2]; 9.62 µM (inactive) in assay [3]; 11.5 µM (inactive) in [4]; 14.1 µM (inactive) in assay [5]; 9.08 µM (inactive) in assay [6]. Also, the GI50 was 12.2 µM (inactive) in [7]; 25.1 µM (inactive) in assay [8]; 22.8 µM (inactive) in [9]; 10.2 µM (inactive) in assay [10]; 17.5 µM (inactive) in [11]; 10.3 µM (inactive) in assay [12]. Moreover, the GI50 in assay [14] is 20.2 µM (inactive); in assay [15] it was 1.4 µM (inactive); in [16] it was 18.7 µM (inactive); in assay [17], 10.9 µM (inactive); in [18], 10 µM (inactive); in assay [19], 26.7 µM (inactive).
For the compound `O=C1CSC(c2cc3cc(Br)ccc3nc2Cl)N1c1ccc(F)c(Cl)c1` (configuration not stated), the GI50 in [1] is 12.7 µM (inactive); in assay [2] it was > 50 µM (inactive); in [3], > 50 µM (inactive); in assay [4] it was 13.1 µM (inactive); in assay [5], 11.1 µM (inactive); in [6], 17.3 µM (inactive). The GI50 in assay [7] is > 50 µM (inactive); in [8], > 50 µM (inactive); in assay [9], > 50 µM (inactive); in assay [10] it was 33.1 µM (inactive); in assay [11], > 50 µM (inactive); in assay [12] it was > 50 µM (inactive). For the same compound, the GI50 in assay [13], in assay [14], in assay [15], in assay [16], in [17] and in [18] was > 50 µM (inactive) each time. Also, in assay [19], the GI50 was > 50 µM (inactive).
Turning to `CCCCCC(/C=N/N)C(O)(C(F)(F)F)C(F)(F)F` (configuration not stated), the GI50 in assay [1] is > 10 µM (inactive); in assay [2], 5.06 µM (inactive); in assay [3] it was 2.64 µM (inactive); in assay [4], > 10 µM (inactive); in [5] it was > 10 µM (inactive); in [6] it was 3.93 µM (inactive). Also, the GI50 in assay [7] is 3.99 µM (inactive); in assay [8], 3.29 µM (inactive); in assay [9], 3.27 µM (inactive); in assay [10], 5.51 µM (inactive); in assay [11], 3.59 µM (inactive); in [12], 6.78 µM (inactive). The GI50 in assay [13] was 7.89 µM (inactive); in assay [14] it was 4.04 µM (inactive); in [15], 4.19 µM (inactive); in assay [16] it was 3.48 µM (inactive); in assay [17] it was 2.47 µM (inactive); in assay [18], 2.04 µM (inactive). Moreover, in [19], the GI50 is 4.08 µM (inactive).
As for `CCOc1nc(-c2ccccc2)cc(-c2ccc(N3CCOCC3)cc2)c1C#N`, the GI50 in assay [1], in assay [3], in [4], in assay [5], in assay [6] and in assay [7] was > 100 µM (inactive) throughout. In addition, the GI50 in assay [8], in assay [9], in [10], in [11], in assay [12] and in assay [13] was > 100 µM (inactive) each time. In addition, the GI50 in [14], in [15], in assay [16], in assay [17], in assay [18] and in assay [19] was > 100 µM (inactive) each time.
Consider `c1csc(-c2cc(-c3ccsc3)c(-c3cccs3)s2)c1`, for which the GI50 is 36.9 µM (inactive) in assay [1]; 41.3 µM (inactive) in assay [3]; 28.8 µM (inactive) in assay [4]; 30.1 µM (inactive) in assay [5]; > 100 µM (inactive) in [6]; 29.8 µM (inactive) in [7]. Besides, the GI50 in assay [8] was 17.9 µM (inactive); in assay [9], > 100 µM (inactive); in assay [10] it was 61.7 µM (inactive); in [11], 43.6 µM (inactive); in [12], 55.8 µM (inactive); in [13], > 100 µM (inactive). Also, the GI50 in assay [14] is 46.2 µM (inactive); in assay [15], > 100 µM (inactive); in [16] it was > 100 µM (inactive); in [17], > 100 µM (inactive); in assay [18], > 100 µM (inactive); in assay [19], > 100 µM (inactive).
Consider `O=C(/C=C/c1ccccc1)CCC1C(=O)c2ccccc2C1=O`, for which the GI50 in assay [1] was 66.2 µM (inactive); in assay [2] it was > 100 µM (inactive); in assay [3] it was > 100 µM (inactive); in assay [4] it was > 100 µM (inactive); in assay [5] it was > 100 µM (inactive); in [6] it was > 100 µM (inactive). Further, the GI50 in assay [7] is > 100 µM (inactive); in assay [8] it was 19.7 µM (inactive); in assay [9], > 100 µM (inactive); in assay [10], > 100 µM (inactive); in assay [11], > 100 µM (inactive); in assay [12], > 100 µM (inactive). Further, the GI50 in [14], in [15], in assay [16], in assay [17], in [18] and in assay [19] was > 100 µM (inactive) each time.
`COC(=O)c1c(C)cccc1/C=C1\Cc2cc(C)cc(C)c2C1=O`: the GI50 was > 100 µM (inactive) in assay [1]; > 100 µM (inactive) in assay [3]; > 100 µM (inactive) in [4]; > 100 µM (inactive) in assay [5]; 35.1 µM (inactive) in [6]; 36.8 µM (inactive) in assay [7]. In addition, the GI50 in assay [8] is 12.9 µM (inactive); in assay [9] it was 18.1 µM (inactive); in [10], 11.2 µM (inactive); in assay [11], 89.5 µM (inactive); in [12], 82.2 µM (inactive); in assay [13], 27.2 µM (inactive). The GI50 was > 100 µM (inactive) in assay [14]; > 100 µM (inactive) in [15]; 63.8 µM (inactive) in assay [16]; > 100 µM (inactive) in assay [17]; 50.6 µM (inactive) in assay [18]; 18.5 µM (inactive) in assay [19].
For `Cn1c(=O)c2c(-c3ccccc3)onc2n(C)c1=O`, the GI50 in [1] was 36.6 µM (inactive); in assay [2], > 100 µM (inactive); in [4], 22.4 µM (inactive); in assay [5], 26.8 µM (inactive); in assay [6], 37.9 µM (inactive); in [7], 27.4 µM (inactive). For the same compound, the GI50 in [8] is 24.6 µM (inactive); in assay [9], 24.5 µM (inactive); in assay [10] it was 27.9 µM (inactive); in [11] it was 25.2 µM (inactive); in [12], 32.7 µM (inactive); in [13], 14.4 µM (inactive). In addition, the GI50 is 17.2 µM (inactive) in assay [14]; 31 µM (inactive) in [15]; 24 µM (inactive) in assay [16]; 42.1 µM (inactive) in [17]; 12.1 µM (inactive) in assay [18]; 40.7 µM (inactive) in assay [19].
On to `CCc1cccc(C(C)C)c1NC(=O)C(=O)Nn1c(S)nc2ccccc2c1=O`, for which the GI50 in assay [1] was 77.3 µM (inactive); in assay [2], > 100 µM (inactive); in assay [3], > 100 µM (inactive); in [4], > 100 µM (inactive); in assay [5] it was > 100 µM (inactive); in [6] it was > 100 µM (inactive). The GI50 in [7], in [8], in [9], in [10], in assay [11] and in assay [12] was > 100 µM (inactive) in each case. Also, the GI50 in [13], in assay [14], in [15], in assay [16], in assay [17] and in assay [18] was > 100 µM (inactive) each time.

The values are drawn from ChEMBL document CHEMBL1201862, “PubChem BioAssay data set” (2004).
